pIC50: −log10 of the molar value.
Assays:
CDK8 [1] = target: T1, CDK8 (Homo sapiens, UniProt P49336); assay: LANTHASCREEN Eu Kinase Binding Assay (competitive kinase binding, Tracer displacement); set-up: purchased INVITROGEN; details: displacing the Tracer from binding to the target kinase; read-out: Enzyme IC50
Description: The biological activities of the compounds of the present application can be assessed through a variety of methods known in the art. […] The changes in the signal produced by the reporting ligand when the compound is present relative when the compound is absent are recorded, which are calculated to provide the IC50 of the compound. Compounds of the present application were tested in a competitive kinase binding assay by using commercially available assay system. For example, LANTHASCREEN© Eu Kinase Binding Assay (INVITROGEN™) was used to measure the IC50 of the compounds of the present application in displacing the Tracer from binding to the target kinase, by following the assay protocol from INVITROGEN™.
Target sequence in this assay (P49336 whole entry): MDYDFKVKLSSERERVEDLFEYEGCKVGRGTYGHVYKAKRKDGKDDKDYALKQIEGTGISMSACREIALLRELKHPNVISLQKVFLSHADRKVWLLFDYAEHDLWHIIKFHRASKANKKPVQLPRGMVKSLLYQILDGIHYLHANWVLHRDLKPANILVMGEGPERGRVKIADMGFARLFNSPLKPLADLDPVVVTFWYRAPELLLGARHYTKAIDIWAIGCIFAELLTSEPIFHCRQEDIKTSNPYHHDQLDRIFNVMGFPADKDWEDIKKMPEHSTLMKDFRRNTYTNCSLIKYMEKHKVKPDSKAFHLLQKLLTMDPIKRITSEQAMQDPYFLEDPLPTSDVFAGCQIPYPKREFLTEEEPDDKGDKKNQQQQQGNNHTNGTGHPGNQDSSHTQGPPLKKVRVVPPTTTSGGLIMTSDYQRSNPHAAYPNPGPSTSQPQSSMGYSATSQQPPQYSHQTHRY
Target sequence in this assay (P24863 whole entry partner): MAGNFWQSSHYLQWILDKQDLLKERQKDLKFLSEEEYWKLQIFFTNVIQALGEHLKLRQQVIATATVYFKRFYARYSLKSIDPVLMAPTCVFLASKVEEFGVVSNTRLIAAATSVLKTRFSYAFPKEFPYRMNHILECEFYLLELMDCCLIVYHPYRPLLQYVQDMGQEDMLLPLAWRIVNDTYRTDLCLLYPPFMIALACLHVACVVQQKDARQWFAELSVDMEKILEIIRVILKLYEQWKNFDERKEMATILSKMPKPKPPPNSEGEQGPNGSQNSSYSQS

[2] = tested on: phosphorylation of S727-STAT1, a known CDK8 substrate, in HepG2 cells; assay: Western blot of pS727-STAT1 in IFNγ-treated HepG2 cells; type: cell-based; details: 18 h with IFNγ, Compound 33 at 0.5, 1 or 5 μM, DCA at 0.1 or 1 μM
Description: FIG. 1 is a Western blot illustrating inhibition of phosphorylation of 5727-STAT1, a known CDK8 substrate, to form pS727-STAT1. pS727-STAT1 and total STAT1 were from HepG2 cells independently treated for 18 h with interferon gamma (IFNγ) and 0.5 μM, 1 μM, or 5 μM Compound 33, or with IFNγ and 0.1 μM or 1 μM dehydrocortistatin A (“DCA”).

CDK8 [3] = target: T1, CDK8; assay: KINOMESCAN binding analysis
Description: (§1) The KINOMESCAN® was performed with binding assays of Compound 33 against a panel of 468 kinases at a concentration of 10 μM.
(§2) To evaluate the kinase selectivity of compounds of the application, KINOMESCAN® binding analysis against a panel of 468 kinases at a concentration of 10 μM was conducted.
Target sequence in this assay (P49336 whole entry): as the sequence (P49336 whole entry) above

CDK19 = CDK19 (Homo sapiens, UniProt Q9BWU1); assay: KINOMESCAN binding analysis
Description: as §1, §2

PIKFYVE = PIKFYVE (Homo sapiens, UniProt Q9Y2I7); assay: KINOMESCAN binding analysis
Description: as §1, §2

NEK1 [4] = target: T2, NEK1 (Homo sapiens, UniProt Q96PY6); assay: KINOMESCAN binding analysis
T2 sequence (Q96PY6 1-1258): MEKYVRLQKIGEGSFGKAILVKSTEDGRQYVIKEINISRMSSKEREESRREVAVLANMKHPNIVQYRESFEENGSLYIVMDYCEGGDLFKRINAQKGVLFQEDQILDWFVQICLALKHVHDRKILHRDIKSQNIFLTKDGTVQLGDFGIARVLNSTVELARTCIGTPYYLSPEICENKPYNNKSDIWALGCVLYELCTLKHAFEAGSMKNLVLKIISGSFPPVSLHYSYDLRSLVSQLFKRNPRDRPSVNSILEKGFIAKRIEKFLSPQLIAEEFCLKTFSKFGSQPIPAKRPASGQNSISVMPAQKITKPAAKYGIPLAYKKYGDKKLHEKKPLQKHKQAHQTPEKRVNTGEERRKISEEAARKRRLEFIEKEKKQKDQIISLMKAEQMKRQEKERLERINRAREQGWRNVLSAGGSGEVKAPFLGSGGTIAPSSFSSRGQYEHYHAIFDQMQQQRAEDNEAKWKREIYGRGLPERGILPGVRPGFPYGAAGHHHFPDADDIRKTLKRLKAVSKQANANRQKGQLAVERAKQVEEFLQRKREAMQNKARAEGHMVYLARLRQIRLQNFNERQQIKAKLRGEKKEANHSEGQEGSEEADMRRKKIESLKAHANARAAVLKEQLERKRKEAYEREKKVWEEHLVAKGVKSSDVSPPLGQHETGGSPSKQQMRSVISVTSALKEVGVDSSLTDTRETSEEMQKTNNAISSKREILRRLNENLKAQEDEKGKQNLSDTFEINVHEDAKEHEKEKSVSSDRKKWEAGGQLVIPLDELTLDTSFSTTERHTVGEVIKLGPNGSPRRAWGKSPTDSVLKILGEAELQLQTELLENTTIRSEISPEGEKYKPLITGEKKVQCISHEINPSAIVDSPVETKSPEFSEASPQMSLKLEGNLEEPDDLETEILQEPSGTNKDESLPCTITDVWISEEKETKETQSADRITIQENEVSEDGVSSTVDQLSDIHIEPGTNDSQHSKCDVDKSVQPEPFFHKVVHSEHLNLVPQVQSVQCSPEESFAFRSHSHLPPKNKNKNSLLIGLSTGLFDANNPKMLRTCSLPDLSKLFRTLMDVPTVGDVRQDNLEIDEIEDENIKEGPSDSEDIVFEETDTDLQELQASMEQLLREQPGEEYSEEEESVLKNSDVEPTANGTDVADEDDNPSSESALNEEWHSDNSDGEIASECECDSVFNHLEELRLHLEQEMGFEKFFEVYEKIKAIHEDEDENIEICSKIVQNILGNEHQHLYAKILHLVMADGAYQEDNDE
Description: as §1, §2

NEK1 [5] = target: T2, NEK1; assay: Dose-response analysis of NEK1; type: biochemical
panel of 468 kinases = assay: KINOMESCAN binding analysis, panel of 468 kinases; details: 10 μM
Description: as §1, §2

CDK8 [6] = target: T1, CDK8; assay: CDK8 IC50 stated for DCA; type: biochemical; set-up: purchased INVITROGEN
Target sequence in this assay (P49336 whole entry): as the sequence (P49336 whole entry) above
Target sequence in this assay (P24863 whole entry partner): as the sequence (P24863 whole entry partner) above

Sequence of PIKFYVE (Q9Y2I7 whole entry): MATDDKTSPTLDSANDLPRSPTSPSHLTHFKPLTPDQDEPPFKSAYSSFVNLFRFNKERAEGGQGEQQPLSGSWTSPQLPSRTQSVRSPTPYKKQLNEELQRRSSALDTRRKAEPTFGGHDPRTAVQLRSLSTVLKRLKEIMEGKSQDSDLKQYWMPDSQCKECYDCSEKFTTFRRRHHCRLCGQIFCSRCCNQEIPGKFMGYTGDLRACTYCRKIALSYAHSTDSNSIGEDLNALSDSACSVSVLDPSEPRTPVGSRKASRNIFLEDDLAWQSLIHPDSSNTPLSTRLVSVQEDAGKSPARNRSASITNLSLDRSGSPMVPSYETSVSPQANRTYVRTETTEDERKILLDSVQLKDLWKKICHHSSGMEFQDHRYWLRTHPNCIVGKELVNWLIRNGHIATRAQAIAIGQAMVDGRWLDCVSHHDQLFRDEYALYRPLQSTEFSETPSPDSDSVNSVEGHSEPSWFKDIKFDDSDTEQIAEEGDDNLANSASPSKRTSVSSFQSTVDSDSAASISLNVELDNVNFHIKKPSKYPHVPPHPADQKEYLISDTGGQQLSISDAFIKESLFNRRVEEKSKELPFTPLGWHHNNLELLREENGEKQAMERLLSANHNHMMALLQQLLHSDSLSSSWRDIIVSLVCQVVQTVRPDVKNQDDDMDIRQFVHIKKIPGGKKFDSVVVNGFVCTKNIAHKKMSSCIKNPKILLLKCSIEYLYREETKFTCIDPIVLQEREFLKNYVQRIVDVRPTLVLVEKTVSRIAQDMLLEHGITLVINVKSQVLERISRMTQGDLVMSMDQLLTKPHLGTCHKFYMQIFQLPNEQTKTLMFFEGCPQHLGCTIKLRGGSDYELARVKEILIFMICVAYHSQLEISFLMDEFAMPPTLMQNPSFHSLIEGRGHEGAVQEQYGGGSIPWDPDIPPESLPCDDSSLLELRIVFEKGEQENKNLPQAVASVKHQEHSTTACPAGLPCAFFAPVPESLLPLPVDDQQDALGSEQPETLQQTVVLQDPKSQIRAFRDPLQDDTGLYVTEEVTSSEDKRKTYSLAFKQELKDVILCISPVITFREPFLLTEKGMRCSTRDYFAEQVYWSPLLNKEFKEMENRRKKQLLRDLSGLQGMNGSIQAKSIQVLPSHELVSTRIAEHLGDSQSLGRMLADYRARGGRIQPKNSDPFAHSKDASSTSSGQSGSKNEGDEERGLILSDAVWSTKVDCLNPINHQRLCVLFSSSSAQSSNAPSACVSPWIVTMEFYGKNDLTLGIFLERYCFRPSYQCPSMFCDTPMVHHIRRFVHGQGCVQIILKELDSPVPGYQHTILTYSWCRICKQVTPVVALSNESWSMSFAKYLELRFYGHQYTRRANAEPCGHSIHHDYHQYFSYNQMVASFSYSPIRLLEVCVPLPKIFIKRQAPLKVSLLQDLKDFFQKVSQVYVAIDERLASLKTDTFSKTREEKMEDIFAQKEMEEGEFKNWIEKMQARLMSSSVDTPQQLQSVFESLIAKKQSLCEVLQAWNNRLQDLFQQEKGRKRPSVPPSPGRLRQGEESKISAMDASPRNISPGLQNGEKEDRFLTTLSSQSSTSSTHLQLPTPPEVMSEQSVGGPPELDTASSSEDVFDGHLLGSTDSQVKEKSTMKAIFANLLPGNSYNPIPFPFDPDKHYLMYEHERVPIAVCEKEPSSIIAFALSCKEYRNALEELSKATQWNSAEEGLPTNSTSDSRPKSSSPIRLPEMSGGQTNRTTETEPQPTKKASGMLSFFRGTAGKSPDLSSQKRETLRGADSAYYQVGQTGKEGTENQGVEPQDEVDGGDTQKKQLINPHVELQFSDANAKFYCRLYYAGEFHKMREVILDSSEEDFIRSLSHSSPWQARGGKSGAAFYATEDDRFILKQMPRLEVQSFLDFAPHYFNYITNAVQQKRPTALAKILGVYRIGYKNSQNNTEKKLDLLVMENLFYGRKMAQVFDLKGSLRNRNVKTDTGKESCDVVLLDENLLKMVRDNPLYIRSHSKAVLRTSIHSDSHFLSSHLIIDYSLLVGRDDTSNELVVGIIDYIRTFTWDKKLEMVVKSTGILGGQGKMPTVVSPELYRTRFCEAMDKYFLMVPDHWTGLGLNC
Sequence of CDK19 (Q9BWU1 whole entry): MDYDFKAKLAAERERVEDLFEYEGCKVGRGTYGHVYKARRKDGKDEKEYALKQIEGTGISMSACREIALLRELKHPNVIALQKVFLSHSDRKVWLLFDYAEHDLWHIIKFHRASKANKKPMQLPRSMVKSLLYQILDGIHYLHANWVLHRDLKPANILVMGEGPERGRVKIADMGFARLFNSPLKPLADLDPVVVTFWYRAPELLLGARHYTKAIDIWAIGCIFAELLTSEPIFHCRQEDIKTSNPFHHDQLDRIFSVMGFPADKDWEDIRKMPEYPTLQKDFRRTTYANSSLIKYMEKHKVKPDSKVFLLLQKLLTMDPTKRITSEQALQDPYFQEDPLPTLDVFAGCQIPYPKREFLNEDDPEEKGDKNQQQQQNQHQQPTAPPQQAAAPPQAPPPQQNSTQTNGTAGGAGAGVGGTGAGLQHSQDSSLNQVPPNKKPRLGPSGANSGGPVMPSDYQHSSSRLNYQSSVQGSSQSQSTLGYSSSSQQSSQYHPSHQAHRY

SMILES	pIC50 (CDK8 [1])	further results
C[C@]12CC[C@H]3[C@@H](CC=C4C[C@@H](O)CC[C@@]43C)[C@@H]1CC[C@@H]2c1ccc2cn[nH]c2c1 [Compound 13]	< 5.22	–
C[C@]12CC[C@H]3[C@@H](CC=C4C[C@@H](O)CC[C@@]43C)[C@@H]1CC[C@@H]2c1ccc2ccncc2c1 [Compound 8a, (3S,8S,9S,10R,13S,14S,17S)-17-(isoquinolin-7-yl)-10,13-dimethyl-2,3,4,7,8,9,10,11,12,13,14,15,16,17-tetradecahydro-1H-cyclopenta[a]phenanthren-3-ol]	> 7.00	–
CN(C)[C@H]1CC[C@@]2(C)C(=CCC3[C@@H]4CC[C@H](c5ccc6ccncc6c5)[C@@]4(C)CC[C@@H]32)C1 (stereo in doubt) [Compound 33, (3S,8R,9S,10R,13S,14S)-17-(isoquinolin-7-yl)-N,N,10,13-tetramethyl-2,3,4,7,8,9,10,11,12,13,14,15,16,17-tetradecahydro-1H-cyclopenta[a]phenanthren-3-amine]	> 7.00	inhibition of S727 phosphorylation of STAT1 [2]: dose-dependent inhibition; inhibition at 10 µM (CDK8 [3]): > 90%; inhibition at 10 µM (CDK19): > 90%; inhibition at 10 µM (PIKFYVE): > 90%; inhibition at 10 µM (NEK1 [4]): > 90%; pIC50 (NEK1 [5]): < 5.00; kinase selectivity (panel of 468 kinases): highly selective for CDK8 and CDK19; number of interactions greater than 90% inhibition (panel of 468 kinases): 4
CN(C)[C@@H]1CC[C@@]2(C)[C@@H](CC[C@@H]3[C@@H]2CC[C@]2(C)[C@@H](c4ccc5ccncc5c4)CC[C@@H]32)C1 [Compound 25]	> 7.00	–
C[C@]12CC[C@H](O)CC1=CC[C@@H]1[C@@H]2CC[C@]2(C)C(c3ccc4cn[nH]c4c3)=CC[C@@H]12 [Compound 7]	< 5.22	–
CN(C)[C@H]1CC[C@@]2(C)[C@@H](CC[C@@H]3[C@@H]2CC[C@]2(C)C(c4ccc5ccncc5c4)=CC[C@@H]32)C1 [Compound 22r, (3S,8R,9S,10S,13S,14S)-17-(isoquinolin-7-yl)-N,N,10,13-tetramethyl-2,3,4,5,6,7,8,9,10,11,12,13,14,15-tetradecahydro-1H-cyclopenta[a]phenanthren-3-amine]	6.70 to 7.00	–
C[C@]12CC[C@H](O)CC1=CC[C@@H]1[C@@H]2CC[C@]2(C)C(c3ccc4cnncc4c3)=CC[C@@H]12 [Compound 3]	< 5.22	–
C[C@]12CC[C@H](O)CC1=CC[C@@H]1[C@@H]2CC[C@]2(C)C(c3ccc4c(N)n[nH]c4c3)=CC[C@@H]12 [Compound 5]	5.70 to 6.15	–
C[C@]12CC[C@H](n3ccnn3)C[C@@H]1CC[C@@H]1[C@@H]2CC[C@]2(C)[C@@H](c3ccc4ccncc4c3)CC[C@@H]12 [Compound 39, 7-((3S,8R,9S,10S,13S,14S,17S)-10,13-dimethyl-3-(1H-1,2,3-triazol-1-yl)hexadecahydro-1H-cyclopenta[a]phenanthren-17-yl)isoquinoline]	> 7.00	–
CN(C)[C@H]1CC[C@@]2(C)[C@@H](CC[C@@H]3[C@@H]2CC[C@]2(C)[C@@H](c4ccc5ccncc5c4)CC[C@@H]32)C1 [Compound 23, (3S,8R,9S,10S,13S,14S,17S)-(isoquinolin-7-yl)-N,N,10,13-tetramethylhexadecahydro-1H-cyclopenta[a]phenanthren-3-amine]	> 7.00	–
CN(C)[C@H]1C[C@@]23CC[C@@]4(O2)C(=CC[C@]2(C)C(c5ccc6ccncc6c5)=CC[C@H]24)C=C3[C@@H](O)[C@@H]1O [DCA, dehydrocortistatin A, reference compound]	–	inhibition of S727 phosphorylation of STAT1 [2]: dose-dependent inhibition; pIC50 (CDK8 [6]): 7.77
C[C@]12CC[C@H]3[C@@H](CC=C4C[C@@H](O)CC[C@@]43C)[C@@H]1CC[C@@H]2c1ccc2cnncc2c1 [Compound 9]	< 5.22	–
C[C@]12CC[C@H](O)CC1=CC[C@@H]1C2CC[C@]2(C)C(c3ccc4cnccc4c3)=CC[C@@H]12 (some centres unmarked) [Compound 48]	< 5.22	–
C[C@]12CC[C@H]3[C@@H](CC=C4C[C@@H](O)CC[C@@]43C)[C@@H]1CC[C@@H]2c1ccc2[nH]ncc2c1 [Compound 12]	< 5.22	–
C[C@]12CC[C@H](N3CCOCC3)C[C@@H]1CC[C@@H]1[C@@H]2CC[C@]2(C)[C@@H](c3ccc4ccncc4c3)CC[C@@H]12 [Compound 34, 4-((3S,5S,8R,10S,13S,14S,17S)-17-(isoquinolin-7-yl)-10,13-dimethylhexadecahydro-1H-cyclopenta[a]phenanthren-3-yl)morpholine]	6.70 to 7.00	–
CN[C@H]1CC[C@@]2(C)[C@@H](CC[C@@H]3[C@@H]2CC[C@]2(C)[C@@H](c4ccc5ccncc5c4)CC[C@@H]32)C1 [Compound 46, (3S,8R,9S,10S,13S,14S,17S)-17-(isoquinolin-7-yl)-N,10,13-trimethylhexadecahydro-1H-cyclopenta[a]phenanthren-3-amine]	5.70 to 6.15	–
C[C@]12CC[C@H](O)CC1=CC[C@@H]1[C@@H]2CC[C@]2(C)C(c3ccc4[nH]ncc4c3)=CC[C@@H]12 [Compound 6]	< 5.22	–
